Test results as given in ChEMBL document CHEMBL1124752, “Cyclobut-A and cyclobut-G: broad-spectrum antiviral agents with potential utility for the therapy of AIDS” (J Med Chem, 1990).
Converted amounts (≈) assume the structure as drawn.

Experiments:
Human alphaherpesvirus 1 [1] = assay: Tested for mean day to death of nonsurvivors against HSV-1 infection in mice at 200 mg/kg per day; format: functional
Human alphaherpesvirus 1 [2] = assay: Tested for mean day to death of nonsurvivors against HSV-1 infection in mice at 50 mg/kg per day; format: functional
Human alphaherpesvirus 1 [3] = assay: In vitro antiviral activity against herpesvirus, HSV-1,E-377 strain by plaque reduction assay in human foreskin fibroblasts; format: functional; settings: read-out: ED50 (the source's name)
Human alphaherpesvirus 2 [4] = assay: In vitro antiviral activity against herpesvirus,HSV-2,HEET strain by plaque reduction assay in human foreskin fibroblasts; format: functional; settings: read-out: ED50 (the source's name)
Human alphaherpesvirus 1 [5] = assay: Tested for mean day to death of nonsurvivors against HSV-1 infection in mice at 12.5 mg/kg per day; format: functional
Human alphaherpesvirus 1 [6] = assay: In vitro antiviral activity against herpesvirus, HSV-1, E-377 strain by plaque reduction assay in human foreskin fibroblasts.; format: functional; settings: read-out: ID50 (the source's name)
[7] = In vitro antiviral activity against herpesvirus, HSV-JEN strain by plaque reduction assay in human foreskin fibroblasts.; format: functional, herpes simplex virus; settings: Human alphaherpesvirus 1; read-out: ID50 (the source's name)
Human alphaherpesvirus 2 [8] = assay: In vitro antiviral activity against herpesvirus, HSV-2, JEN strain by plaque reduction assay in human foreskin fibroblasts; format: functional; settings: read-out: ED50 (the source's name)
Human alphaherpesvirus 2 [9] = assay: In vitro antiviral activity against herpesvirus, HSV-2, MS strain by plaque reduction assay in human foreskin fibroblasts; format: functional; settings: read-out: ED50 (the source's name)
Human alphaherpesvirus 1 [10] = assay: Number of survivors per number of HSV-1 infected mice treated with 12.5 mg/kg per day; 2/10; format: functional
Human alphaherpesvirus 1 [11] = assay: Number of survivors per number of HSV-1 infected mice treated with 200 mg/kg per day; 4/10; format: functional
Human alphaherpesvirus 1 [12] = assay: Number of survivors per number of HSV-1 infected mice treated with 50 mg/kg per day; 0/10; format: functional
Human alphaherpesvirus 2 [13] = assay: In vitro antiviral activity against herpesvirus, HSV-2, MS strain by plaque reduction assay in human foreskin fibroblasts.; format: functional; settings: read-out: ID50 (the source's name)
Human alphaherpesvirus 2 [14] = assay: In vitro antiviral activity against herpesvirus,HSV-2,X-79 strain by plaque reduction assay in human foreskin fibroblasts; format: functional; settings: read-out: ED50 (the source's name)
Human alphaherpesvirus 2 [15] = assay: In vitro antiviral activity against herpesvirus, HSV-2, X-79 strain by plaque reduction assay in human foreskin fibroblasts.; format: functional; settings: read-out: ID50 (the source's name)
[16] = In vitro antiviral activity against herpesvirus, HSV-HEET strain by plaque reduction assay in human foreskin fibroblasts.; format: functional, herpes simplex virus; settings: Human alphaherpesvirus 1; read-out: ID50 (the source's name)
Raji = assay: Tested for the inhibition of diffuse early antigen production assayed by immunofluorescent monoclonal antibody.; format: functional; settings: Homo sapiens
Human alphaherpesvirus 3 [17] = assay: In vitro antiviral activity tested against herpesvirus, VZV, Ellen strain by plaque reduction assay in human foreskin fibroblasts.; settings: Human alphaherpesvirus 3, read-out: ED50
Human alphaherpesvirus 3 [18] = assay: In vitro antiviral activity against herpesvirus, VZV, Ellen strain by plaque reduction assay in human foreskin fibroblasts.; settings: Human alphaherpesvirus 3, read-out: ID50
Human alphaherpesvirus 3 [19] = assay: In vitro antiviral activity tested against herpesvirus, VZV, OKA strain by plaque reduction assay in human foreskin fibroblasts.; settings: Human alphaherpesvirus 3, read-out: ED50
Human alphaherpesvirus 3 [20] = assay: In vitro antiviral activity against herpesvirus, VZV, OKA strain by plaque reduction assay in human foreskin fibroblasts.; settings: Human alphaherpesvirus 3, read-out: ID50
Homo sapiens = species on record: Homo sapiens; assay: The drug concentration was determined to reduce proliferation of human foreskin fibroblasts to 50% of untreated controls in proliferation assay.; format: functional; settings: read-out: ID50 (the source's name)

Which MDD (Human alphaherpesvirus 1 [1]) does the source give for `Nc1nc2c(ncn2COCCO)c(=O)[nH]1` [ACYCLOVIR] here?
Its MDD is 12.3.

And the MDD (Human alphaherpesvirus 1 [2])?
Its MDD is 8.

And the EC50 (Human alphaherpesvirus 1 [3])?
The EC50 was 0.08 µg/mL (≈ 0.355 µM).

And the EC50 (Human alphaherpesvirus 2 [4])?
The EC50 was 0.06 µg/mL (≈ 0.266 µM).

And the MDD (Human alphaherpesvirus 1 [5])?
Its MDD is 7.8.

And the IC50 (Human alphaherpesvirus 1 [6])?
Its IC50 is greater than 100 µg/mL.

What about the IC50 [7] of the same molecule?
Its IC50 is greater than 100 µg/mL.

What about the EC50 (Human alphaherpesvirus 2 [8]) of the same molecule?
Its EC50 is 0.07 µg/mL (≈ 0.311 µM).

What about the EC50 (Human alphaherpesvirus 2 [9]) of the same molecule?
The EC50 was 0.09 µg/mL (≈ 0.4 µM).

And the Survivors / treated (Human alphaherpesvirus 1 [10])?
Its Survivors / treated is 2.

And the Survivors / treated (Human alphaherpesvirus 1 [11])?
Its Survivors / treated is 4.

What about the Survivors / treated (Human alphaherpesvirus 1 [12]) of the same molecule?
The Survivors / treated was 0.

What about the IC50 (Human alphaherpesvirus 2 [13]) of the same molecule?
The IC50 was greater than 100 µg/mL.

What about the EC50 (Human alphaherpesvirus 2 [14]) of the same molecule?
Its EC50 is 0.1 µg/mL (≈ 0.444 µM).

What about the IC50 (Human alphaherpesvirus 2 [15]) of the same molecule?
Its IC50 is greater than 100 µg/mL.

And the IC50 [16]?
The IC50 was greater than 100 µg/mL.

And the EC50 (Raji; read-out: ED50 (the source's name))?
The EC50 was 3.8 µg/mL (≈ 16.9 µM).

And the IC50 (Raji; read-out: ID50 (the source's name))?
Its IC50 is greater than 100 µg/mL.

And the EC50 (Human alphaherpesvirus 3 [17])?
The EC50 was 2.3 µg/mL (≈ 10.2 µM).

What about the IC50 (Human alphaherpesvirus 3 [18]) of the same molecule?
The IC50 was greater than 100 µg/mL.

What about the EC50 (Human alphaherpesvirus 3 [19]) of the same molecule?
The EC50 was 3.7 µg/mL (≈ 16.4 µM).

And the IC50 (Human alphaherpesvirus 3 [20])?
The IC50 was greater than 100 µg/mL.

And the IC50 (Homo sapiens)?
The IC50 was 165 µg/mL (≈ 733 µM).
